# According to patent US20260207483A1, “PHARMACEUTICAL CO[…] FOR THE TREATMENT OF OPHTHALMIC CONDITIONS” (Adtech Pharma, Inc., priority 2022, published 2026):
# Columns and labels:
# [1] = Solubility of nabilone in water and common solvents (USP classification); format: physicochemical
# Source text: Nabilone is difficult to solubilize in most solvents such that preparing a liquid composition comprising nabilone is very challenging. […] These solvents are not suitable for use in human pharmaceutical formulations.
# [2] = Solubility of nabilone in sesame oil; format: physicochemical; conditions: 5% w/w of nabilone in sesame oil; for Nabilone recovered from oil phase (w/w in mg/mL): 250 mg/g added
# Source text: It is also challenging to solubilize nabilone in pharmaceutically acceptable oils, even at elevated temperatures.
smiles,measurement,setting,value
CCCCCCC(C)(C)c1cc(O)c2c(c1)OC(C)(C)C1CCC(=O)CC21 (centres unmarked) [Nabilone],USP Classification of solubility,"[1]; 1,4-Dioxane",Freely Soluble
same,USP Classification of solubility,[1]; 2-Methyltetrahydrofuran,Freely Soluble
same,USP Classification of solubility,[1]; Acetone,Freely Soluble
same,USP Classification of solubility,[1]; Dichloromethane,Freely Soluble
same,USP Classification of solubility,[1]; Dimethoxyethane,Freely Soluble
same,USP Classification of solubility,[1]; Dimethyl sulfoxide,Freely Soluble
same,USP Classification of solubility,[1]; Dimethylformamide,Freely Soluble
same,USP Classification of solubility,[1]; Methyl ethyl ketone,Freely Soluble
same,USP Classification of solubility,[1]; Tetrahydrofuran,Freely Soluble
same,USP Classification of solubility,[1]; p-Xylene,Freely Soluble
same,Solubility in water (USP classification),[1]; water at any pH,insoluble
same,"Observation After Centrifuge (14000 rpm, 10 minutes)",[2]; not heated,Clear solution
same,Observation Before Centrifuge,[2]; not heated,Turbid
same,Nabilone recovered from oil phase (w/w in mg/mL),[2]; not heated,3.9 mg/mL
same,"Observation After Centrifuge (14000 rpm, 10 minutes)",[2]; heated to 90° C. for 3 hours,Clear solution
same,Observation Before Centrifuge,[2]; heated to 90° C. for 3 hours,Turbid
same,Nabilone recovered from oil phase (w/w in mg/mL),[2]; heated to 90° C. for 3 hours,6.3 mg/mL
